Consider 8 compounds from patent US20190169221A1, “SUBSTITUTED NUCLEOSIDES, NUCLEOTIDES AND ANALOGS THEREOF” (Janssen BioPharma, Inc., priority 2016, published 2019).

Test [1] concerns Dengue virus type 2 strain New Guinea C (NG-C). The test is described as follows: Dengue viral assay (cytopathic effect, Huh-7.5 cells). As to conditions: Huh7.5, Dengue virus type 2 (NG-C strain), read-out: Dengue NGC EC50. The class given is cell-based. As to the method: (§1) The Dengue virus type 2 strain New Guinea C (NG-C) and the Dengue virus type 4 strain H241 were purchased from ATCC (Manassas, Va.; item numbers VR-1584 and VR-1490, respectively). The Zika virus strain MR766 was purchased from ATCC (item #VR-1838) and the Zika virus strain IbH 30656 was purchased from BEI Resources (Manassas, Va.; item number NR-500066). 24 h prior to dosing, Huh-7.5 cells were plated in 96 well plates at a density of 1.5×10^5/mL in DMEM medium supplemented with 10% fetal bovine serum, 1% HEPES buffer, 1% Penicillin/Streptomycin and 1% non-essential amino acids (all Mediatech, Manassas, Va.). At the day of infection, serially diluted compounds were added to cells and incubated for 24 h. After the end of the 24 h pre-incubation period, cells were infected with either Dengue virus type 2 NG-C, Dengue virus type 4 H241, Zika virus strain MR766 or Zika virus strain IbH 30656. The virus inoculum was selected to cause 80-90% cytopathic effect in four (Zika) to five (Dengue) days. Infected cells were incubated for four to five days at 37° C., 5% CO2. To develop the assay, 100 μL media was replaced with 100 μl CellTiter-Glo® reagent (Promega, Madison, Wis.) and incubated for 10 mins at R.T. Luminescence was measured on a Victor ×3 multi-label plate reader. Potential compound cytotoxicity was determined using uninfected parallel cultures.

The test system of test [2] is Huh-7 cells containing the self-replicating, subgenomic HCV replicon. The test is described as follows: HCV replicon assay. The class given is cell-based. The conditions noted are these: Hepatitis C virus; Huh-7 replicon cells, 72 h, luciferase.
Test [3] concerns Zika virus. Nature of the test: Zika viral assay (cytopathic effect, Huh-7.5 cells). Type of test: cell-based. The conditions noted are these: Huh7.5, read-out: Zika EC50. The procedure:
as §1

Test [4] deals with Human rhinovirus 1B. Nature of the test: Picornavirus / enterovirus assay, HRV 1B (HeLa-OHIO cells). The class given is cell-based. The conditions noted are these: Rhinovirus A; HeLa-OHIO cells, 33° C.; read-out: HRV 1B EC50.
Test [5] concerns Human rhinovirus 16. The test is described as follows: Enterovirus assay, HRV 16 (HeLa-OHIO cells). Type of test: cell-based. The conditions noted are these: Rhinovirus A. The procedure: (§2) HeLa OHIO cells were purchased from Sigma Aldrich (St Louis, Mo.) and cultured in MEM with Glutamax (Gibco cat. #41090) supplemented with 10% FBS (Mediatech cat. #35-011-CV) and 1% penicillin/streptomycin (Mediatech cat. #30-002-CI), at 37° C. with 5% CO2. RD cells were purchased from ATCC (Manassas, Va.) and cultured in DMEM, supplemented with 10% FBS (Mediatech cat. #35-011-CV) and 1% penicillin/streptomycin (Mediatech cat. #30-002-CI), at 37° C. with 5% CO2. For […]68 and CVB3, HeLa-OHIO cells were plated at a density of 1.5×10^5 cells per mL (1.5×10^4 cells per well) in assay media (MEM without phenol red or L-glutamine (Gibco cat. #51200) supplemented with 1% FBS, 1% penicillin/streptomycin (Mediatech cat. #30-002-CI) and 1% Glutamax (Gibco cat. #35050)) in clear-bottom 96 well plates. For EV71, RD cells were plated at a density of 5×10^4 cells per mL (5000 cells per well) in assay media (DMEM supplemented with 2% FBS and 1% penicillin/streptomycin). After 24 h, media was removed and replaced with serially diluted compounds in assay media. […] After 2-6 days, cell viability was measured using CellTiter Glo Luminescent Cell Viability Assay (Promega cat. #G7572). […] Plates were incubated at R.T. for 5 mins, then luminescence was measured using a Perkin Elmer multilabel counter Victor3V. EC50 values were determined using XLFit.

The test system of test [6] is Human rhinovirus 14. Nature of the test: Enterovirus assay, HRV 14 (HeLa-OHIO cells). The conditions noted are these: Rhinovirus B. Type of test: cell-based.
The subject of test [7] is Human rhinovirus 75. Nature of the test: Enterovirus assay, HRV 75 (HeLa-OHIO cells). Type of test: cell-based. The conditions noted are these: Rhinovirus A. As to the method:
as §2

The subject of test [8] is CVB3. The test is described as follows: Enterovirus assay, CVB3 (HeLa-OHIO cells). The class given is cell-based, Coxsackie virus 3B. As to conditions: Enterovirus B, 37° C. The procedure: as §2
The subject of test [9] is EV71. Nature of the test: Enterovirus assay, EV71 (RD cells). As to conditions: Enterovirus A, 37° C. The class given is cell-based. The procedure:
HeLa OHIO cells were purchased from Sigma Aldrich (St Louis, Mo.) and cultured in MEM with Glutamax (Gibco cat. #41090) supplemented with 10% FBS (Mediatech cat. #35-011-CV) and 1% penicillin/streptomycin (Mediatech cat. #30-002-CI), at 37° C. with 5% CO2. RD cells were purchased from ATCC (Manassas, Va.) and cultured in DMEM, supplemented with 10% FBS (Mediatech cat. #35-011-CV) and 1% penicillin/streptomycin (Mediatech cat. #30-002-CI), at 37° C. with 5% CO2. For […]68 and CVB3, HeLa-OHIO cells were plated at a density of 1.5×10^5 cells per mL (1.5×10^4 cells per well) in assay media (MEM without phenol red or L-glutamine (Gibco cat. #51200) supplemented with 1% FBS, 1% penicillin/streptomycin (Mediatech cat. #30-002-CI) and 1% Glutamax (Gibco cat. #35050)) in clear-bottom 96 well plates. For EV71, RD cells were plated at a density of 5×10^4 cells per mL (5000 cells per well) in assay media (DMEM supplemented with 2% FBS and 1% penicillin/streptomycin). After 24 h, media was removed and replaced with serially diluted compounds in assay media. For EC50 measurements, cells were infected in 100 μL assay media with a virus inoculum sufficient to obtain to cause 80-90% cytopathic effect. After 2-6 days, cell viability was measured using CellTiter Glo Luminescent Cell Viability Assay (Promega cat. #G7572). Cells infected with EV-71, EV-68 and CVB3 were cultured at 37° C., while cells infected with hV1b, hV-16, hV-75 were cultured at 33° C. 100 μL media was removed from each well and 100 μL CellTiter Glo reagent was added. Plates were incubated at R.T. for 5 mins, then luminescence was measured using a Perkin Elmer multilabel counter Victor3V. EC50 values were determined using XLFit.

The target in test [10] is human rhinovirus 16 polymerase (HRV16pol) (Human rhinovirus 16, UniProt Q82122). The test is described as follows: Picornavirus polymerase inhibition assay. The class given is biochemical. As to conditions: triphosphates, read-out: Viral Polymerase Inhibition IC50 Picornavirus. As to the method: The enzyme activity of human rhinovirus 16 polymerase (HRV16pol) was measured as an incorporation of tritiated NMP into acid-insoluble RNA products. hV16pol assay reactions contained […] recombinant enzyme, 50 nM heteropolymeric RNA, about 0.5 μCi tritiated NTP, 0.1 mM of competing cold NTP, 40 mM Tris-HCl (pH 7.0), […] dithiothreitol and 0.5 mM MgCl2. Standard reactions were incubated for 2.5 h at 30° C., in the presence of increasing concentration of inhibitor. At the end of the reaction, RNA was precipitated with 10% TCA and acid-insoluble RNA products were filtered on a size exclusion 96-well plate. After washing of the plate, scintillation liquid was added and radiolabeled RNA products were detected using standard procedures with a Trilux Microbeta scintillation counter. The compound concentration at which the enzyme-catalyzed rate was reduced by 50% (IC50) was calculated by fitting the data to a non-linear regression (sigmoidal).

Test [11] concerns the target Dengue viral polymerase (Dengue virus type 2, UniProt P14340). The test is described as follows: biochemical. As to conditions: triphosphates; read-out: Viral Polymerase Inhibition IC50 Dengue.
The target in test [12] is NS5B-BK (Delta-21) (Hepatitis C virus genotype 1b, UniProt P26663). The test is described as follows: biochemical. Details: species or system HCV.
Sequence of NS5B-BK (Delta-21) (P26663 2420-2989 limits assumed): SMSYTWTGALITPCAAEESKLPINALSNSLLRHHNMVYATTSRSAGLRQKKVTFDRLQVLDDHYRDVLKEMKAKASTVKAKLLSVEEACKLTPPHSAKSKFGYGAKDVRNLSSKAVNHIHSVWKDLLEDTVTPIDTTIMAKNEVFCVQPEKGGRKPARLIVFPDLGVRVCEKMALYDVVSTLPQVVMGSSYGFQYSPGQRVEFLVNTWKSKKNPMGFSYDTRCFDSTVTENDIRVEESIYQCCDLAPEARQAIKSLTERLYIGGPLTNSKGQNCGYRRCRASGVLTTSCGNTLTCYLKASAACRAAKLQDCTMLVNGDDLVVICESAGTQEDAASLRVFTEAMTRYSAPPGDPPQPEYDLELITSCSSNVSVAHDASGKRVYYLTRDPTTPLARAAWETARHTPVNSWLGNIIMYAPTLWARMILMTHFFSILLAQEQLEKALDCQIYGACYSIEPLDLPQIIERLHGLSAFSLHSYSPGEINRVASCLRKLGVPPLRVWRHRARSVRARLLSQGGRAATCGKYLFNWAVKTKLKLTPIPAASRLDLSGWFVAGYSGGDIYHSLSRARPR

Sequence of human rhinovirus 16 polymerase (HRV16pol) (Q82122 1694-2153 limits assumed): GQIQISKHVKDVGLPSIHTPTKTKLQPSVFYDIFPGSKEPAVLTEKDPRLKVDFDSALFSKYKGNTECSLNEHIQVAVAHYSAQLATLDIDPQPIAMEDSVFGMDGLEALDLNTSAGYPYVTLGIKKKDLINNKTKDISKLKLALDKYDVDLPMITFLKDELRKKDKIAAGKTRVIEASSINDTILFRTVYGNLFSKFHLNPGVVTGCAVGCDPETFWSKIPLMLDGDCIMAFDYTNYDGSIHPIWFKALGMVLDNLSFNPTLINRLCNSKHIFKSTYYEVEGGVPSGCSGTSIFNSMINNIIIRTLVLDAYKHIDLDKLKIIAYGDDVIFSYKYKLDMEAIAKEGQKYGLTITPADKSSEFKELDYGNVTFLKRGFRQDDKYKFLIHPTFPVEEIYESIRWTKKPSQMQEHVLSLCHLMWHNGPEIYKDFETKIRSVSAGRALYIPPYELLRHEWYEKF

Turning to `C#C[C@]1(O)[C@H](n2cnc3c(N)ncnc32)O[C@](F)(CO)[C@H]1O` [Compound 1, (2S,3S,4R,5R)-5-(6-amino-9H-purin-9-yl)-4-ethynyl-2-fluoro-2-(hydroxymethyl)tetrahydrofuran-3,4-diol], the EC50 in test [1], in test [2], in test [3], in test [4], in [5] and in [6] was less than 3 µM throughout. The EC50 in test [7], in [8] and in test [9] was less than 3 µM each time.

For `C#C[C@]1(O)[C@H](n2cc(F)c3c(N)ncnc32)O[C@](F)(CO)[C@H]1O` [Compound 7, (2S,3S,4R,5R)-5-(4-amino-5-fluoro-7H-pyrrolo[2,3-d]pyrimidin-7-yl)-4-ethynyl-2-fluoro-2-(hydroxymethyl)tetrahydrofuran-3,4-diol], the half-maximal effective concentration (EC50) in test [1], in test [4] and in [9] was less than 3 µM throughout.

As to `C[C@]1(O)[C@H](n2cnc3c(N)ncnc32)O[C@](F)(CO)[C@H]1O` [Compound 13, (2S,3S,4R,5R)-5-(6-amino-9H-purin-9-yl)-2-fluoro-2-(hydroxymethyl)-4-methyltetrahydrofuran-3,4-diol], the EC50 in [1] is more than 100 µM; in [2] it was 3 to 30 µM; in [4], 3 to 30 µM.

As for `C[C@]1(F)[C@H](n2cnc3c(N)nc(N)nc32)O[C@](F)(CO)[C@H]1O` [Compound 15, (2S,3S,4R,5R)-5-(2,6-diamino-9H-purin-9-yl)-2,4-difluoro-2-(hydroxymethyl)-4-methyltetrahydrofuran-3-ol], the values for the concentration giving a half-maximal response (EC50) in [1], in test [2] and in test [4] were more than 100 µM, more than 100 µM and 30 to 100 µM, respectively.

Regarding `C#C[C@@]1(O)[C@H](O)[C@@H](CO)O[C@H]1c1ccc2c(N)ncnn12` [Compound 26, (2S,3R,4R,5R)-2-(4-aminopyrrolo[2,1-f][1,2,4]triazin-7-yl)-3-ethynyl-5-(hydroxymethyl)tetrahydrofuran-3,4-diol], the EC50 in test [1], in test [4] and in test [9] was less than 3 µM in each case.

As for `C#C[C@]1(OC(=O)C(C)C)[C@H](n2cnc3c(N)ncnc32)O[C@](F)(COC(=O)C(C)C)[C@H]1OC(=O)C(C)C` [Compound 43, (2S,3S,4R,5R)-5-(6-amino-9H-purin-9-yl)-4-ethynyl-2-fluoro-2-((isobutyryloxy)methyl)tetrahydrofuran-3,4-diylbis(2-methylpropanoate)], the EC50 in [1], in test [4] and in [9] was less than 3 µM each time.

In the case of `C#C[C@]1(O)[C@H](n2cnc3c(N)nc(F)nc32)O[C@](F)(COP(=O)(O)OP(=O)(O)OP(=O)(O)O)[C@H]1O` [Compound 57], the 50% inhibitory concentration (IC50) in [10], in test [11] and in [12] was less than 3 µM throughout.

On to `C#C[C@@]1(O)[C@H](O)[C@@H](COP(=O)(O)OP(=O)(O)OP(=O)(O)O)O[C@H]1n1cc(F)c2c(N)ncnc21` [Compound 58], for which the IC50 in [10], in test [11] and in test [12] was less than 3 µM throughout.
